Molecules are shown by their SMILES.

For orientation: IC50 means the point on the concentration scale where inhibition reaches its midpoint.

This assay deals with T1, recombinant human GR (Homo sapiens, UniProt P04150).
T1 construct: purchased Panvera/Invitrogen P2812 (kit P2893)
T1 sequence (P04150 1-777): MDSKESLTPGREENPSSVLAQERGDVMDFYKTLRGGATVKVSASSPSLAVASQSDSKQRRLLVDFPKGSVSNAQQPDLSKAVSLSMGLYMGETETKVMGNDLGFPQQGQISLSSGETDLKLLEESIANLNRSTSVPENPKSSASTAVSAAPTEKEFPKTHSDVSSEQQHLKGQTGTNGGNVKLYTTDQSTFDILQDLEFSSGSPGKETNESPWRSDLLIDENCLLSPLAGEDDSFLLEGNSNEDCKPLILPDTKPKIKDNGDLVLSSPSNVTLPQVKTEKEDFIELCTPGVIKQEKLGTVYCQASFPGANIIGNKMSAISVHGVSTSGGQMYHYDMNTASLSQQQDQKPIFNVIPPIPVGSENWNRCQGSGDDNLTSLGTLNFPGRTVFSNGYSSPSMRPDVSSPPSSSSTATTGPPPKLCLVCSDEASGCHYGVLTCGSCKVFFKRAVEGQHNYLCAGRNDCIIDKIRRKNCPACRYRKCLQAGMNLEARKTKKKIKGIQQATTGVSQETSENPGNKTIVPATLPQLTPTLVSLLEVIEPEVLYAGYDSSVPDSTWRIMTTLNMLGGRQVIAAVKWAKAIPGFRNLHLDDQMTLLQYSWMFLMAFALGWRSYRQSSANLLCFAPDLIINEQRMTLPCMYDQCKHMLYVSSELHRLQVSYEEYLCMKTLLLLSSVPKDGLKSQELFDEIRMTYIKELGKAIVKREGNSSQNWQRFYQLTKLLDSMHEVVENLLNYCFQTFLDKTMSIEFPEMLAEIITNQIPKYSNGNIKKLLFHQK
In words: Human Glucocorticoid Receptor (GR) fluorescence polarization assay. In kind it is binding. The following applies: GS Red tracer, 2 hours at room temperature. As for the experimental part: Human Glucocorticoid Receptor (GR) Assay
The assay is based on a commercial kit from Panvera/Invitrogen (Part number P2893). The assay technology is fluorescence polarization. The kit utilises recombinant human GR (Panvera, Part number P2812), a Fluoromone™ labelled tracer (GS Red, Panvera, Part number P2894) and a Stabilizing Peptide 10× (Panvera, Part number P2815). The GR and Stabilizing Peptide reagents are stored at −70° C. while the GS Red is stored at −20° C. Also included in the kit are 1M DTT (Panvera, Part number P2325, stored at −20° C.) and GR Screening buffer 10× (Panvera, Part number P2814, stored at −70° C. initially but once thawed stored at room temperature). Avoid repeated freeze/thaws for all reagents. The GR Screening buffer 10× comprises 100 mM potassium phosphate, 200 mM sodium molybdate, 1 mM EDTA and 20% DMSO.
Test compounds (1 μL) and controls (1 μL) in 100% DMSO were added to black polystyrene 384-well plates (Greiner low volume black flat-bottom, part number 784076). 0% control was 100% DMSO and 100% control was 10 μM Dexamethasone. […] The plate was read in an Analyst plate reader (LJL Biosystems/Molecular Devices Corporation) or other similar plate reader capable of recording fluorescence polarization (excitation wavelength 530 nm, emission wavelength […] and a dichroic mirror at 561 nm). The IC50 values were calculated using XLfit model 205.

Consider `CC1=CC(C)(C)N(Cc2ccc(Cl)cc2)c2ccccc21` [CAS120109-44-6], for which the IC50 was found to be 240 nM.

Source of the values: patent US20090036484A1, “Use of Unsaturated Quionoline or Naphtalene Derivatives as Medicaments” (AstraZeneca AB, priority 2004, published 2009).
